Measured values reported in paper PMC6169518 (Environmental science & technology, 2016).
“And” between values parts separate entries of the source, which are not always exact repeats. Equal values may be shown once. One block for each compound: values may come before it.

Columns and labels:
[1] = test system: mice; assay: Toxicity of FLC in mice fed diet containing 0.5% FLC for 10 days; type: in vivo; details: diet containing 0.5% FLC vs control diet
[2] = test system: Human liver microsomes (HLM); assay: Human liver microsome incubation of FLC; details: 60 min
[3] = test system: Chinese Hamster Ovary K1 (CHO-K1) cells; details: cited from earlier work
[4] = test system: microsomal GST in human liver microsomes (HLM); assay: Kinetic analysis of GSH conjugation; type: in vitro ADME
[5] = test system: microsomal GST in mouse liver microsomes (MLM); assay: Kinetic analysis of GSH conjugation; type: in vitro ADME
[6] = Quantification of FLC in mouse serum after single oral administration; type: in vivo; details: mice
[7] = rats and rabbits; cited from earlier work
[8] = test system: cytosolic GST in mouse liver cytosols (MLC); assay: Kinetic analysis of GSH conjugation; type: in vitro ADME; details: FLC-SG formation, Michaelis-Menten
[9] = 24-h excretion of unchanged FLC in mouse urine, feces and bile; type: in vivo; details: mice, oral, 0-24 h
[10] = test system: cytosolic GST in human liver cytosols (HLC); assay: Kinetic analysis of GSH conjugation; type: in vitro ADME; details: FLC-SG formation, Michaelis-Menten
[11] = test system: rats; details: 45 and 90 days of dosing and last recovery day; cited from earlier work
[12] = test system: recombinant human CYPs; assay: Oxidation of FLC by a panel of human recombinant CYP isozymes; type: in vitro ADME; details: 50 nM recombinant human CYPs, 60 min
[13] = test system: glutathione S-transferase (GST)
[14] = HLM, FLC-SG formation, Michaelis-Menten
[15] = MLM, FLC-SG formation, Michaelis-Menten

Compound: O=C1C(Cl)C(CCl)CN1c1cccc(C(F)(F)F)c1 (racemic) [FLC, (3RS,4RS;3RS,4SR)-3-chloro-4-chloromethyl-1-(α,α,α-tri-fluoro-m-tolyl)-2-pyrrolidone]
Alanine transaminase (ALT) [1]: elevated significantly
triglycerides ([1]; hepatic): slightly increased
aqueous peroxide ([1]; liver): slightly increased
parent compound consumed ([2]; HLM supplemented with NADPH): Approximately 30%
more consumption of FLC ([2]; coincubation with GSH, NADPH and HLM): 40%
DNA damage [3]: induce single-strand DNA breaks
maximum clearance (Vmax/Km) of GSH conjugation, HLM over HLC ([4]; HLM vs HLC): approximately 5.5 fold
Km [4, 14]: 374 µM
Vmax [4, 14]: 5.63 pmol·min^−1·mg protein^−1
maximum clearance (Vmax/Km) of GSH conjugation, MLM over MLC ([5]; MLM vs MLC): approximately 11.2 fold
Km [5, 15]: 367 µM
Vmax [5, 15]: 9.5 pmol·min^−1·mg protein^−1 and 9.50 pmol·min^−1·mg protein^−1
concentration of FLC in serum ([6]; high dose group (50 mg/kg oral), 4 h post-dose): 8020 ± 2810 nM
concentration of FLC in serum ([6]; high dose group (50 mg/kg oral), 24 h post-dose): 285 ± 76 nM
concentration of FLC in serum ([6]; low dose group (5 mg/kg oral), 4 h post-dose): 941 ± 220 nM
concentration of FLC in serum ([6]; low dose group (5 mg/kg oral), 24 h post-dose): 53 ± 25 nM
excretion rate of unchanged FLC [7]: less than 1.5 % of the applied dose
Vmax [8]: 4.65 pmol·min^−1·mg protein^−1
24-h excretion of FLC in bile ([9]; bile): undetectable
24-h excretion rate of FLC in feces ([9]; feces): 1.21−1.40%
Km [10]: 148 µM
Vmax [10]: 0.404 pmol·min^−1·mg protein^−1
histopathological observations [11]: testis and epididymis lesions were consistently observed

CYP isozymes catalysing formation of the metabolite from FLC [12]: CYP1A1, 1A2, 2C8, 2C9, 2E1, and 3A4
Compound: O=C1C(Cl)C(CO)CN1c1cccc(C(F)(F)F)c1 (stereo not shown) [M3]

CYP isozymes catalysing formation of the metabolite from FLC [12]: CYP1A1, 1A2, and 3A4
Compound: O=C1C(Cl)C(CCl)C(O)N1c1cccc(C(F)(F)F)c1 (stereo not shown) [M5–1]

CYP isozymes catalysing formation of the metabolite from FLC [12]: CYP1A1, 1A2, and 3A4
Compound: O=C1C(Cl)C(CCl)C(O)N1c1cccc(C(F)(F)F)c1 (stereo not shown) [M5–2]

Compound: N[C@@H](CCC(=O)N[C@@H](CSC1C(=O)N(c2cccc(C(F)(F)F)c2)CC1CCl)C(=O)NCC(=O)O)C(=O)O (stereo partly shown) [M13]
M13 detected in buffer ([13]; buffer with GSH, without microsomes or cytosols): trace amount
formation of M13 in microsomes relative to cytosols ([13]; microsomes vs cytosols, with GSH): more than 2 fold
